What was measured:
Assay type in all cases: in vivo
[1] = system: wild oat (Avena fatua); assay: Test C preemergence, wild oat; settings: 21 days, scale 0 to 100
Source text: (§1) Seeds of plant species selected from annual bluegrass (Poa annua), blackgrass (Alopecurus myosuroides), canarygrass (Phalaris minor), gallium, (catchweed bedstraw, Galium aparine), chickweed (Stellaria media), downy bromegrass (Bromus tectorum), field poppy (Papaver rhoeas), field violet (Viola arvensis), green foxtail (Setaria viridis), deadnettle (henbit deadnettle, Lamium amplexicaule), Italian ryegrass (Lolium multiflorum), kochia (Kochia scoparia), lambsquarters (Chenopodium album), oilseed rape (Brassica napus), pigweed (Amaranthus retroflexus), Russian thistle (Salsola kali), spring barley (Hordeum vulgare), spring wheat (Triticum aestivum), wild buckwheat (Polygonum convolvulus), wild mustard (Sinapis arvensis), wild oat (Avena fatua), wild radish (Raphanus raphanistrum), windgrass (Apera spica-venti), winter barley (Hordeum vulgare), and winter wheat (Triticum aestivum) were planted and treated preemergence with test chemicals formulated in a non-phytotoxic solvent mixture which included a surfactant.
(§2) Treated plants and controls were maintained in a controlled growth environment for 21 days after which time all species were compared to controls and visually evaluated. Plant response ratings, summarized in Table C, are based on a scale of 0 to 100 where 0 is no effect and 100 is complete control. A dash (-) response means no test result.

[2] = system: yellow nutsedge (Cyperus esculentus); assay: Test B preemergence, yellow nutsedge; settings: scale 0 to 100
Source text: (§3) Seeds of plant species selected from blackgrass (Alopecurus myosuroides), downy bromegrass (Bromus tectorum), green foxtail (Setaria viridis), Italian ryegrass (Lolium multiflorum), wheat (Triticum aestivum), wild oat (Avena fatua), catchweed bedstraw (Galium aparine), bermudagrass (Cynodon dactylon), Surinam grass (Brachiaria decumbens), cocklebur (Xanthium strumarium), corn (Zea mays), large crabgrass (Digitaria sanguinalis), woolly cupgrass (Eriochloa villosa), giant foxtail (Setaria faberii), goosegrass (Eleusine indica), johnsongrass (Sorghum halepense), kochia (Kochia scoparia), lambsquarters (Chenopodium album), morningglory (Ipomoea coccinea), nightshade (eastern black nightshade, Solanum ptycanthum), yellow nutsedge (Cyperus esculentus), pigweed (Amaranthus retroflexus), ragweed (common ragweed, Ambrosia elatior), soybean (Glycine max), sunflower (common oilseed sunflower, Helianthus annuus), Russian thistle (Salsola kali), and velvetleaf (Abutilon theophrasti) were planted into a blend of loam soil and sand and treated preemergence with test compounds formulated in a non-phytotoxic solvent mixture which included a surfactant. Treated plants and controls were maintained in a greenhouse for 13 to 15 days, after which time all species were compared to controls and visually evaluated. Plant response ratings, summarized in Table B, are based on a scale of 0 to 100 where 0 is no effect and 100 is complete control. A dash (-) response means no test result.

[3] = system: velvetleaf (Abutilon theophrasti); assay: Test B preemergence, velvetleaf; settings: Preemergence, scale 0 to 100
Source text: as §3

[4] = system: giant foxtail (Setaria faberi); assay: Test A postemergence, giant foxtail; settings: 0 to 100 scale (0 no effect, 100 complete control)
Procedure, shortened: (§4)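 Visual injury rating, 0 = no effect to 100 = complete control, made roughly ten days after treatment by comparison with untreated controls. Preemergence: directed soil spray onto freshly planted loam/sand. Postemergence: foliar application at one- to two-leaf stage, 2–10 cm height.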

[5] = system: Italian ryegrass (Lolium multiflorum); assay: Test B preemergence, Italian ryegrass; settings: Preemergence, scale 0 to 100
Source text: as §3

[6] = system: chickweed (Stellaria media); assay: Test C preemergence, chickweed; settings: 21 days, scale 0 to 100
Source text: as §1, §2

[7] = system: Russian thistle (Salsola kali); assay: Test C preemergence, Russian thistle; settings: 21 days, scale 0 to 100
Source text: as §1, §2

[8] = system: winter wheat (Triticum aestivum); assay: Test C preemergence, winter wheat; settings: 21 days, scale 0 to 100
Source text: as §1, §2

[9] = system: corn (Zea mays); assay: Test B preemergence, corn; settings: scale 0 to 100
Source text: as §3

[10] = system: corn (Zea mays); assay: Test A preemergence, corn; settings: 0 to 100 scale (0 no effect, 100 complete control)
Procedure, shortened: as §4

[11] = system: oilseed rape (Brassica napus); assay: Test C preemergence, oilseed rape; settings: 21 days, scale 0 to 100
Source text: as §1, §2

[12] = system: morningglory (Ipomoea spp.); assay: Test A postemergence, morningglory; settings: 0 to 100 scale (0 no effect, 100 complete control)
Procedure, shortened: as §4

[13] = system: wild mustard (Sinapis arvensis); assay: Test C preemergence, wild mustard; settings: 21 days, scale 0 to 100
Source text: as §1, §2

[14] = system: winter barley (Hordeum vulgare); assay: Test C preemergence, winter barley; settings: 21 days, scale 0 to 100
Source text: as §1, §2

[15] = system: Russian thistle (Salsola kali); assay: Test B preemergence, Russian thistle; settings: scale 0 to 100
Source text: as §3

## CC1(C)CC(S(=O)(=O)Cc2c(C(F)(F)F)nc3n(c2=O)CCS3)=NO1 [Compound 6]
[1]; 31 g ai/ha
  Plant response rating, Oat, Wild: 20
[1]; 62 g ai/ha
  Plant response rating, Oat, Wild: 25
[1]; 125 g ai/ha
  Plant response rating, Oat, Wild: 25
[1]; 250 g ai/ha
  Plant response rating, Oat, Wild: 30
[2]; 16 g ai/ha
  Plant response rating, Nutsedge, Yellow: 0
[2]; 31 g ai/ha
  Plant response rating, Nutsedge, Yellow: 0
[2]; 62 g ai/ha
  Plant response rating, Nutsedge, Yellow: 0
[2]; 125 g ai/ha
  Plant response rating, Nutsedge, Yellow: 45
[3]; 16 g ai/ha
  Plant response rating, Velvetleaf: 0
[3]; 31 g ai/ha
  Plant response rating, Velvetleaf: 0
[3]; 62 g ai/ha
  Plant response rating, Velvetleaf: 0
[3]; 125 g ai/ha
  Plant response rating, Velvetleaf: 0
[4]; 125 g ai/ha
  Plant response rating, Foxtail, Giant: 80
[4]; 500 g ai/ha
  Plant response rating, Foxtail, Giant: 90
[5]; 16 g ai/ha
  Plant response rating, Ryegrass, Italian: 0
[5]; 31 g ai/ha
  Plant response rating, Ryegrass, Italian: 15
[5]; 62 g ai/ha
  Plant response rating, Ryegrass, Italian: 80
[5]; 125 g ai/ha
  Plant response rating, Ryegrass, Italian: 95
[6]; 31 g ai/ha
  Plant response rating, Chickweed: 0
[6]; 62 g ai/ha
  Plant response rating, Chickweed: 0
[6]; 125 g ai/ha
  Plant response rating, Chickweed: 0
[6]; 250 g ai/ha
  Plant response rating, Chickweed: 50
[7]; 31 g ai/ha
  Plant response rating, Russian Thistle: 0
[7]; 62 g ai/ha
  Plant response rating, Russian Thistle: 0
[7]; 125 g ai/ha
  Plant response rating, Russian Thistle: 0
[8]; 31 g ai/ha
  Plant response rating, Wheat, Winter: 0
[8]; 62 g ai/ha
  Plant response rating, Wheat, Winter: 0
[8]; 125 g ai/ha
  Plant response rating, Wheat, Winter: 0
[8]; 250 g ai/ha
  Plant response rating, Wheat, Winter: 20
[9]; 16 g ai/ha
  Plant response rating, Corn: 0
[9]; 31 g ai/ha
  Plant response rating, Corn: 0
[9]; 62 g ai/ha
  Plant response rating, Corn: 0
[9]; 125 g ai/ha
  Plant response rating, Corn: 0
[10]; 125 g ai/ha
  Plant response rating, Corn: 0
[10]; 500 g ai/ha
  Plant response rating, Corn: 0
[11]; 31 g ai/ha
  Plant response rating, Oilseed Rape: 0
[11]; 62 g ai/ha
  Plant response rating, Oilseed Rape: 0
[11]; 125 g ai/ha
  Plant response rating, Oilseed Rape: 0
[11]; 250 g ai/ha
  Plant response rating, Oilseed Rape: 0
[12]; 125 g ai/ha
  Plant response rating, Morningglory: 40
[12]; 500 g ai/ha
  Plant response rating, Morningglory: 50
[13]; 31 g ai/ha
  Plant response rating, Mustard, Wild: 0
[13]; 62 g ai/ha
  Plant response rating, Mustard, Wild: 0
[13]; 125 g ai/ha
  Plant response rating, Mustard, Wild: 0
[13]; 250 g ai/ha
  Plant response rating, Mustard, Wild: 0
[14]; 31 g ai/ha
  Plant response rating, Barley, Winter: 0
[14]; 62 g ai/ha
  Plant response rating, Barley, Winter: 0
[14]; 125 g ai/ha
  Plant response rating, Barley, Winter: 15
[14]; 250 g ai/ha
  Plant response rating, Barley, Winter: 20

## CC1(C)CC(S(=O)(=O)Cc2c(C(F)(F)F)nc3n(c2=O)CCCC3)=NO1 [Compound 8, 3-[[(4,5-dihydro-5,5-dimethyl-3-isoxazolyl)sulfonyl]methyl]-6,7,8,9-tetrahydro-2-(trifluoromethyl)-4H-pyrido[1,2-α]pyrimidin-4-one]
[1]; 16 g ai/ha
  Plant response rating, Oat, Wild: 0
[1]; 31 g ai/ha
  Plant response rating, Oat, Wild: 0
[1]; 62 g ai/ha
  Plant response rating, Oat, Wild: 0
[1]; 125 g ai/ha
  Plant response rating, Oat, Wild: 0
[2]; 16 g ai/ha
  Plant response rating, Nutsedge, Yellow: 0
[2]; 31 g ai/ha
  Plant response rating, Nutsedge, Yellow: 20
[2]; 62 g ai/ha
  Plant response rating, Nutsedge, Yellow: 60
[2]; 125 g ai/ha
  Plant response rating, Nutsedge, Yellow: 80
[3]; 16 g ai/ha
  Plant response rating, Velvetleaf: 0
[3]; 31 g ai/ha
  Plant response rating, Velvetleaf: 0
[3]; 62 g ai/ha
  Plant response rating, Velvetleaf: 35
[3]; 125 g ai/ha
  Plant response rating, Velvetleaf: 45
[4]; 125 g ai/ha
  Plant response rating, Foxtail, Giant: 70
[4]; 500 g ai/ha
  Plant response rating, Foxtail, Giant: 90
[5]; 16 g ai/ha
  Plant response rating, Ryegrass, Italian: 0
[5]; 31 g ai/ha
  Plant response rating, Ryegrass, Italian: 30
[5]; 62 g ai/ha
  Plant response rating, Ryegrass, Italian: 35
[5]; 125 g ai/ha
  Plant response rating, Ryegrass, Italian: 100
[6]; 16 g ai/ha
  Plant response rating, Chickweed: 0
[6]; 31 g ai/ha
  Plant response rating, Chickweed: 0
[6]; 62 g ai/ha
  Plant response rating, Chickweed: 0
[6]; 125 g ai/ha
  Plant response rating, Chickweed: 40
[15]; 16 g ai/ha
  Plant response rating, Russian Thistle: 0
[15]; 31 g ai/ha
  Plant response rating, Russian Thistle: 0
[15]; 62 g ai/ha
  Plant response rating, Russian Thistle: 0
[15]; 125 g ai/ha
  Plant response rating, Russian Thistle: 0
[7]; 16 g ai/ha
  Plant response rating, Russian Thistle: 0
[7]; 31 g ai/ha
  Plant response rating, Russian Thistle: 0
[7]; 62 g ai/ha
  Plant response rating, Russian Thistle: 0
[7]; 125 g ai/ha
  Plant response rating, Russian Thistle: 0
[8]; 16 g ai/ha
  Plant response rating, Wheat, Winter: 0
[8]; 31 g ai/ha
  Plant response rating, Wheat, Winter: 0
[8]; 62 g ai/ha
  Plant response rating, Wheat, Winter: 0
[8]; 125 g ai/ha
  Plant response rating, Wheat, Winter: 0
[9]; 16 g ai/ha
  Plant response rating, Corn: 10
[9]; 31 g ai/ha
  Plant response rating, Corn: 15
[9]; 62 g ai/ha
  Plant response rating, Corn: 45
[9]; 125 g ai/ha
  Plant response rating, Corn: 55
[10]; 125 g ai/ha
  Plant response rating, Corn: 0
[10]; 500 g ai/ha
  Plant response rating, Corn: 20
[11]; 16 g ai/ha
  Plant response rating, Oilseed Rape: 0
[11]; 31 g ai/ha
  Plant response rating, Oilseed Rape: 0
[11]; 62 g ai/ha
  Plant response rating, Oilseed Rape: 0
[11]; 125 g ai/ha
  Plant response rating, Oilseed Rape: 0
[12]; 125 g ai/ha
  Plant response rating, Morningglory: 60
[12]; 500 g ai/ha
  Plant response rating, Morningglory: 90
[13]; 16 g ai/ha
  Plant response rating, Mustard, Wild: 0
[13]; 31 g ai/ha
  Plant response rating, Mustard, Wild: 0
[13]; 62 g ai/ha
  Plant response rating, Mustard, Wild: 30
[13]; 125 g ai/ha
  Plant response rating, Mustard, Wild: 100
[14]; 16 g ai/ha
  Plant response rating, Barley, Winter: 0
[14]; 31 g ai/ha
  Plant response rating, Barley, Winter: 0
[14]; 62 g ai/ha
  Plant response rating, Barley, Winter: 0
[14]; 125 g ai/ha
  Plant response rating, Barley, Winter: 0

— patent US20100099561A1, “HETEROBICYCLIC ALKYLTHIO-BRIDGED ISOXAZOLINES” (E.I. DU PONT DE NEMOURS AND COMPANY, priority 2008, published 2010)
